Measured values published in patent publication US20100291584A1, “MICROFLUIDIC IMAGING CYTOMETRY” (The Regents of the University of California, priority 2008, published 2010).

Experiments:
[1] = test system: recurrent malignant gliomas; test: Clinical trial of Avastin (in combination with CPT-11) in patients with recurrent malignant gliomas; format: in vivo, human
From the text: The obvious clinical efficacy of avastin will most certainly change the standard of care for malignant glioma patients. […] We will address the following questions: 1) does increased vascularity predispose towards clinical response to avastin (this will be done in collaboration with Dr. Luisa Iruela-Arispe, a noted expert in angiogenesis at UCLA); 2) are the downstream signaling pathways regulated by VEGF reactivated during response and by what mechanism. Are tumors which are driven by key pathways that promote VEGF expression (i.e. EGFR/PI3K signaling) more sensitive to avastin? In addition to testing lese specific hypotheses, we will apply global screening strategies. These include array CGH to detect chromosomal regions of interest associated with sensitivity and resistance (will be done at MSKCC by Dr. Mellinghoff) and integrated with global gene expression data (done both at UCLA and at MSKCC), in addition, through our NanoSystems Biology Cancer Center, we have begun collaboration with Dr. Lee Hood to use surface Plasmon resonance to facilitate the quantitative detection of thousands of proteins in a serum samples. This will enable us to identify protein signatures associated with sensitivity and acquired resistance.

[2] = test system: U87 cells; test: 2-NBDG glucose analog uptake on chip; format: cell-based, human; conditions: 20 min incubation in HBSS
Procedure: (§1) To monitor glucose uptake in U87 cells, a fluorescent deoxyglucose (2-[N-(7-nitrobenz-2-oxa-1,3-diaxol-4-yl)amino]-2-deoxyglucose; 2-NBDG)^72,73 was used and monitored the 2-NBDG uptake by U87 and U87-PTEN cells (FIG. 6). After cells were loaded into a chip, culture medium was washed with Hanks' balanced salt solution (HBSS) with CaCl2. Then, 2-NBDG in HBSS was loaded into a cell chamber and incubated for 20 min in an incubator.

[3] = test system: U87-PTEN cells; test: 2-NBDG glucose analog uptake on chip; format: cell-based, human; conditions: 20 min incubation in HBSS
Procedure: as §1

[4] = target: mTOR (Homo sapiens, UniProt P42345+P62942); conditions: glioblastoma patients

Avastin: VEGF inhibitor, given in combination with CPT-11
median time to tumor progression ([1]; Avastin with CPT-11, 95% CI=122-272, comparator median 56 days): 209 days
median overall survival ([1]; Avastin with CPT-11, 95% CI=251-424, comparator median 184 days): 340 days

O=[N+]([O-])c1ccc(N[C@H]2C(O)O[C@H](CO)[C@@H](O)[C@@H]2O)c2nonc12 (stereo partly drawn) [2-NBDG, 2-[N-(7-nitrobenz-2-oxa-1,3-diaxol-4-yl)amino]-2-deoxyglucose]
fluorescent signal of 2-NBDG uptake [2]: signals of 2-NBDG were observed
fluorescent signal of 2-NBDG uptake [3]: could not be detected

CO[C@H]1C[C@@H]2CC[C@@H](C)[C@@](O)(O2)C(=O)C(=O)N2CCCC[C@H]2C(=O)O[C@H]([C@H](C)C[C@@H]2CC[C@@H](O)[C@H](OC)C2)CC(=O)[C@H](C)/C=C(\C)[C@@H](O)[C@@H](OC)C(=O)[C@H](C)C[C@H](C)/C=C/C=C/C=C/1C [rapamycin]
rapamycin level in tumor tissue in vivo [4]: present in potentially therapeutic levels
extent of mTOR pathway inhibition ([4]; in vivo, variable between patients): 10%-80%
